The compounds below were run against Human complement C1s enzyme (Homo sapiens (Human), UniProt P09871) (assay: Human C1s enzyme assay). Conditions: Human C1s enzyme assay of Example 3; read-out: IC50 (Stars).
Human complement C1s enzyme, sequence (P09871 438-688 limits assumed): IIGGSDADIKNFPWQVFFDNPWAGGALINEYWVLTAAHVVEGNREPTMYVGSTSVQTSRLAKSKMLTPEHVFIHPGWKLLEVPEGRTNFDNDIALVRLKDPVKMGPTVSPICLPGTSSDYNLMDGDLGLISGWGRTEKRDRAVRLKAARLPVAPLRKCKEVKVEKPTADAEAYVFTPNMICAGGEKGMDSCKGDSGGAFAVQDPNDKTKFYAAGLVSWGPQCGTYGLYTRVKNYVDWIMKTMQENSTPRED
Human complement C1s enzyme, sequence (P09871 16-437 partner limits assumed): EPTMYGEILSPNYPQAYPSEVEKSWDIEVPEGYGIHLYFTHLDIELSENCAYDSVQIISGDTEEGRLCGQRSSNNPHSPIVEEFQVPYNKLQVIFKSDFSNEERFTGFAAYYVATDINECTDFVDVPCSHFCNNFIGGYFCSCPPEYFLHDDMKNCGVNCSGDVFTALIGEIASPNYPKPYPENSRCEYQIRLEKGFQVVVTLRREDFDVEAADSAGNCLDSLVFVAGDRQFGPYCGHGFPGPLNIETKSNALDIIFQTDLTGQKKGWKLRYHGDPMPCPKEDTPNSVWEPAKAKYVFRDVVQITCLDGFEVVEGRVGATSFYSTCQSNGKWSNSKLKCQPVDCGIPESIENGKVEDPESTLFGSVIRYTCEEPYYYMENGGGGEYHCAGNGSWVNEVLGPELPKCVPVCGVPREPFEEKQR
Assay type: biochemical
Method in brief: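 Purified serum-derived human C1s (1.16 nM final) preincubated 5 min at room temperature with compound in 50 mM Tris, 1 M NaCl, pH 7.5. Z-L-Lys-SBzl thioester substrate and DTNB added (100 μM each, final); A405 read every 30 s for 30 min. IC50 from nonlinear regression of reaction rates against compound concentration.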
`Cc1ccc(-c2ccc(C(=O)NCC(=O)N3CC4(C[C@H]3C(=O)NCc3cc(C(=N)N)cs3)OCCO4)cc2)cc1` [Compound 108, (S)—N-((4-carbamimidoylthiophen-2-yl)methyl)-7-((4′-methyl-[1,1′-biphenyl]-4-carbonyl)glycyl)-1,4-dioxa-7-azaspiro[4.4]nonane-8-carboxamide] gave an IC50 of under 100 nM. For `Cc1ccccc1[C@H]1C[C@@H](C(=O)N[C@H](C)c2cc(C(=N)N)cs2)N(C(=O)CNC(=O)c2ccc(Oc3ccc(F)cc3)cc2)C1` [Compound 59, (2S,4R)—N—((R)-1-(4-carbamimidoylthiophen-2-yl)ethyl)-1-((4-(4-fluorophenoxy)benzoyl)glycyl)-4-(o-tolyl)pyrrolidine-2-carboxamide], the IC50 was under 100 nM. Work on `Cn1ccc2cc(-c3ccc(C(=O)NCC(=O)N4CC5(C[C@H]4C(=O)NCc4cc(C(=N)N)cs4)OCCO5)cc3)ccc21` [Compound 104, (S)—N-((4-carbamimidoylthiophen-2-yl)methyl)-7-((4-(1-methyl-1H-indol-5-yl)benzoyl)glycyl)-1,4-dioxa-7-azaspiro[4.4]nonane-8-carboxamide] yielded an IC50 of under 100 nM. For `C[C@@H](NC(=O)[C@@H]1CC2(CN1C(=O)CNC(=O)c1ccc(Oc3ccc(F)cc3)cc1)OCCO2)c1cc(C(=N)N)cs1` [Compound 23, (S)—N—((R)-1-(4-carbamimidoylthiophen-2-yl)ethyl)-7-((4-(4-fluorophenoxy)benzoyl)glycyl)-1,4-dioxa-7-azaspiro[4.4]nonane-8-carboxamide], the IC50 was under 100 nM. `O=C(NCC(=O)N1CC2(C[C@H]1C(=O)NCc1cc(-c3ncc[nH]3)cs1)OCCO2)c1ccc(Oc2ccc(F)cc2)cc1` [Compound 157, (S)-N-((4-(1H-imidazol-2-yl)thiophen-2-yl)methyl)-7-((4-(4-fluorophenoxy)benzoyl)glycyl)-1,4-dioxa-7-azaspiro[4.4]nonane-8-carboxamide] gave an IC50 of over 1000 nM. `C[C@@H](NC(=O)[C@@H]1CC2(CN1C(=O)CNC(=O)c1ccc3c(c1)-c1ccccc1C3O)OCCO2)c1cc(C(=N)N)cs1` (stereo partly drawn) [Compound 162, (8S)—N—((R)-1-(4-carbamimidoylthiophen-2-yl)ethyl)-7-((9-hydroxy-9H-fluorene-3-carbonyl)glycyl)-1,4-dioxa-7-azaspiro[4.4]nonane-8-carboxamide] was tested, and the IC50 was under 100 nM. Compound `COC[C@@]1(F)C[C@@H](C(=O)N[C@H](C)c2cc(C(=N)N)cs2)N(C(=O)CNC(=O)c2ccc(Oc3ccc(C(F)(F)F)cc3)cc2)C1` [Compound 18, (2S,4R)—N—((R)-1-(4-carbamimidoylthiophen-2-yl)ethyl)-4-fluoro-4-(methoxymethyl)-1-((4-(4-(trifluoromethyl)phenoxy)benzoyl)glycyl)pyrrolidine-2-carboxamide] has an IC50 of under 100 nM. Work on `COC[C@@]1(F)C[C@@H](C(=O)NCc2ccc(C(=N)N)s2)N(C(=O)CNC(=O)c2ccc(Oc3ccc(F)cc3)cc2)C1` [Compound 68, (2S,4R)—N-((5-carbamimidoylthiophen-2-yl)methyl)-4-fluoro-1-((4-(4-fluorophenoxy)benzoyl)glycyl)-4-(methoxymethyl)pyrrolidine-2-carboxamide] yielded an IC50 of under 100 nM. `Cc1cc(C(=O)NCC(=O)N2CC3(C[C@H]2C(=O)NCc2cc(C(=N)N)cs2)OCCO3)ccc1-c1ccccc1` [Compound 115, (S)—N-((4-carbamimidoylthiophen-2-yl)methyl)-7-((2-methyl-[1,1′-biphenyl]-4-carbonyl)glycyl)-1,4-dioxa-7-azaspiro[4.4]nonane-8-carboxamide] showed an IC50 of under 100 nM. For `NS(=O)(=O)c1cncc(-c2csc(CNC(=O)[C@@H]3CC4(CN3C(=O)CNC(=O)c3ccc(Oc5ccc(F)cc5)cc3)OCCO4)c2)c1` [Compound 143, (S)-7-((4-(4-fluorophenoxy)benzoyl)glycyl)-N-((4-(5-sulfamoylpyridin-3-yl)thiophen-2-yl)methyl)-1,4-dioxa-7-azaspiro[4.4]nonane-8-carboxamide], the IC50 was over 1000 nM. For `CCc1ccc(Oc2ccc(C(=O)NCC(=O)N3C[C@H](OC(F)F)C[C@H]3C(=O)N[C@H](C)c3cc(C(=N)N)cs3)cc2)cc1` [Compound 39, (2S,4R)—N—((R)-1-(4-carbamimidoylthiophen-2-yl)ethyl)-4-(difluoromethoxy)-1-((4-(4-ethylphenoxy)benzoyl)glycyl)pyrrolidine-2-carboxamide], the IC50 was under 100 nM.

Same assay, conditions: Human complement C1s enzyme 1.16 nM, substrate Z-L-Lys-SBzl 100 μM, assay of Example 3; read-out: IC50 (Stars)
Compound `C[C@@H](NC(=O)[C@@H]1C[C@@H](OC(F)F)CN1C(=O)CNC(=O)c1ccc2c(c1)-c1ccccc1S2(=O)=O)c1cc(C(=N)N)cs1` [Compound 337, (2S,4R)—N—((R)-1-(4-carbamimidoylthiophen-2-yl)ethyl)-4-(difluoromethoxy)-1-((5,5-dioxidodibenzo[b,d]thiophene-2-carbonyl)glycyl) pyrrolidine-2-carboxamide] has an IC50 of under 100 nM. With `C=C1C[C@@H](C(=O)N[C@H](C)c2cc(C(=N)N)cs2)N(C(=O)CNC(=O)c2ccc3c(c2)-c2ccccc2C3(F)F)C1` [Compound 203, (S)—N—((R)-1-(4-carbamimidoylthiophen-2-yl)ethyl)-1-((9,9-difluoro-9H-fluorene-3-carbonyl)glycyl)-4-methylenepyrrolidine-2-carboxamide] the IC50 was under 100 nM. Compound `Cc1nc(F)ccc1-c1ccc(C(=O)NCC(=O)N2CC3(C[C@H]2C(=O)NCc2cc(C(=N)N)cs2)OCCO3)cc1` [Compound 211, (S)—N-((4-carbamimidoylthiophen-2-yl)methyl)-7-((4-(6-fluoro-2-methylpyridin-3-yl)benzoyl)glycyl)-1,4-dioxa-7-azaspiro[4.4]nonane-8-carboxamide] has an IC50 of under 100 nM. Compound `COC[C@@]1(F)C[C@@H](C(=O)N[C@H](C)c2cc(C(=N)N)cs2)N(C(=O)CNC(=O)c2ccc3c(c2)C(F)(F)c2ccccc2-3)C1` [Compound 264, (2S,4R)—N—((R)-1-(4-carbamimidoylthiophen-2-yl)ethyl)-1-((9,9-difluoro-9H-fluorene-2-carbonyl)glycyl)-4-fluoro-4-(methoxymethyl)pyrrolidine-2-carboxamide] has an IC50 of under 100 nM. Compound `C[C@@H](NC(=O)[C@@H]1C[C@]2(CN)C[C@@H]2N1C(=O)CNC(=O)c1ccc2c(c1)-c1ccccc1C2(F)F)c1cc(C(=N)N)cs1` [Compound 303, (1S,3S,5S)-5-(aminomethyl)-N—((R)-1-(4-carbamimidoylthiophen-2-yl)ethyl)-2-((9,9-difluoro-9H-fluorene-3-carbonyl)glycyl)-2-azabicyclo[3.1.0]hexane-3-carboxamide] has an IC50 of under 100 nM. In the case of `C[C@@H](NC(=O)[C@@H]1CC2(CN1C(=O)CN1Cc3cc(-c4ccc(F)cc4F)ccc3C1=O)OCCO2)c1cc(C(=N)N)cs1` [Compound 366], the IC50 is reported as under 100 nM. Compound `C[C@@H](NC(=O)[C@@H]1C[C@@H](S(C)(=O)=O)CN1C(=O)CNC(=O)c1ccc2[nH]c3ccccc3c2c1)c1cc(C(=N)N)cs1` [Compound 340, N-(2-((2S,4R)-2-(((R)-1-(4-carbamimidoylthiophen-2-yl)ethyl)carbamoyl)-4-(methylsulfonyl)pyrrolidin-1-yl)-2-oxoethyl)-9H-carbazole-3-carboxamide] has an IC50 of under 100 nM. For `C[C@@H](NC(=O)[C@@H]1C[C@](F)(CF)CN1C(=O)CNC(=O)c1ccc2[nH]c3ccccc3c2c1)c1cc(C(=N)N)cs1` [Compound 341, N-(2-((2S,4R)-2-(((R)-1-(4-carbamimidoylthiophen-2-yl)ethyl)carbamoyl)-4-fluoro-4-(fluoromethyl)pyrrolidin-1-yl)-2-oxoethyl)-9H-carbazole-3-carboxamide], the IC50 was under 100 nM. Work on `C[C@@]12C[C@@H]1N(C(=O)CNC(=O)c1ccc(Oc3ccccc3)cc1)[C@H](C(=O)NCc1cccc(Cl)c1Cl)C2` [Compound 387, (1S,3S,5S)—N-(2,3-dichlorobenzyl)-5-methyl-2-((4-phenoxybenzoyl)glycyl)-2-azabicyclo[3.1.0]hexane-3-carboxamide] yielded an IC50 of over 1000 nM. `Cc1ccccc1[C@H]1C[C@@H](C(=O)N[C@H](C)c2cc(C(=N)N)cs2)N(C(=O)CNC(=O)c2ccc3oc4ccccc4c3c2)C1` [Compound 236, (2S,4R)—N—((R)-1-(4-carbamimidoylthiophen-2-yl)ethyl)-1-((dibenzo[b,d]furan-2-carbonyl)glycyl)-4-(o-tolyl)pyrrolidine-2-carboxamide] showed an IC50 of under 100 nM. For `C[C@@H](NC(=O)[C@@H]1CC2(CN1C(=O)CN1Cc3cc(-c4ccccc4)ccc3C1=O)OCCO2)c1cc(C(=N)N)cs1` [Compound 365, (S)—N—((R)-1-(4-carbamimidoylthiophen-2-yl)ethyl)-7-(2-(1-oxo-5-phenylisoindolin-2-yl)acetyl)-1,4-dioxa-7-azaspiro[4.4]nonane-8-carboxamide], the IC50 was under 100 nM. In the case of `C[C@@H](NC(=O)[C@@H]1C[C@]2(Cn3ccnn3)C[C@@H]2N1C(=O)CNC(=O)c1ccc2c(c1)-c1ccccc1C2(F)F)c1cc(C(=N)N)cs1` [Compound 274, (1S,3S,5S)-5-((1H-1,2,3-triazol-1-yl)methyl)-N—((R)-1-(4-carbamimidoylthiophen-2-yl)ethyl)-2-((9,9-difluoro-9H-fluorene-3-carbonyl)glycyl)-2-azabicyclo[3.1.0]hexane-3-carboxamide], the IC50 is reported as under 100 nM.

Same assay, conditions: Human complement C1s enzyme 1.16 nM, substrate Z-L-Lys-SBzl; assay of Example 3; read-out: IC50 (Stars)
With `CO[C@@H]1C[C@@H](C(=O)N[C@H](CO)c2cc(C(=N)N)cs2)N(C(=O)CNC(=O)c2ccc3c(c2)-c2ccccc2C3(F)F)C1` [Compound 407, (2S,4R)—N—((R)-1-(4-carbamimidoylthiophen-2-yl)-2-hydroxyethyl)-1-((9,9-difluoro-9H-fluorene-3-carbonyl)glycyl)-4-methoxypyrrolidine-2-carboxamide] the IC50 was under 100 nM. Work on `COC[C@@]1(F)C[C@@H](C(=O)N[C@H](CO)c2cc(C(=N)N)cs2)N(C(=O)CNC(=O)c2ccc3c(c2)-c2ccccc2C3(C)C)C1` [Compound 409, (2S,4R)—N—((R)-1-(4-carbamimidoylthiophen-2-yl)-2-hydroxyethyl)-1-((9,9-dimethyl-9H-fluorene-3-carbonyl)glycyl)-4-fluoro-4-(methoxymethyl)pyrrolidine-2-carboxamide] yielded an IC50 of under 100 nM.

— patent US20250346585A1 (Alexion Pharmaceuticals, Inc., priority 2022, published 2025)
